Laboratory results from US10501456B2, “Therapeutic agents for the treatment of HBV infection” (Newave Pharmaceutical Inc., priority 2016, dated 2019).
Where a name gives a salt, the structure may show the parent alone.

Key:
Rat PK study = format: in vivo, female Sprague-Dawley rats; conditions: for AUC(0-t) / bioavailability / Cmax / half-life: female, Sprague-Dawley, plasma, oral dosing; for half-life: read-out: t½ (converted)
Method: The pharmacokinetics of compounds were evaluated in female Sprague-Dawley rats via Intravenous and Oral Administration. The iv dose was administered as a slow bolus in the Jugular vein, and oral doses were administered by gavage. The fomulaltion for IV dosing is 20% DMSO and 60% PEG 400 in water, and the PO formulation (suspension) is 1% MC, 0.4% Kolliphor EL in water. The PK time point for the IV arm is 5, 15, 30 min, 1, 2, 4, 6, 8, 12, 24 hours post dose, and for PO arm is 15, 30 min, 1, 2, 4, 6, 8, 12, 24 hours post dose. Approximately 0.2 mL blood will be collected at each time point. Blood of each sample will be transferred into plastic micro centrifuge tubes containing EDTA-K2 and collect plasma within 15 min by centrifugation at 4000 g for 5 minutes in a 4° C. centrifuge. Plasma samples will be stored in polypropylene tubes. The samples will be stored in a freezer at −75±15° C. prior to analysis. Concentrations of compounds in the plasma samples will be analyzed using a LC-MS/MS method. WinNonlin (Phoenix™, version 6.1) or other similar software will be used for pharmacokinetic calculations. The following pharmacokinetic parameters will be calculated, whenever possible from the plasma concentration versus time data: IV administration: C0, CL, Vd, T1/2, AUCinf, AUClast, MRT, Number of Points for Regression; PO administration: Cmax, Tmax, T1/2, AUCinf, AUClast, F %, Number of Points for Regression. The pharmacokinetic data will be described using descriptive statistics such as mean, standard deviation. Additional pharmacokinetic or statistical analysis may be performed at the discretion of the contributing scientist, and will be documented in the data summary

extracellular HBV DNA = test: HBV DNA assay (real-time qPCR/TaqMan, HepG2.2.15 cells); format: cell-based; conditions: for EC50: Hepatitis B virus, 144 h, six days, supernatant HBV DNA copy number, read-out: EC50 (reduction in HBV DNA levels)
Method: The assay employs real-time qPCR (TaqMan) to directly measure extracellular HBV DNA copy number. HepG2.2.15 cells were plated in 96-well microtiter plates. Only the interior wells were utilized to reduce “edge effects” observed during cell culture, the exterior wells were filled with complete medium to help minimize sample evaporation. On the following day, the HepG2.2.15 cells were washed and the medium was replaced with complete medium containing various concentrations of a test compound in triplicate. 3TC was used as the positive control, while media alone was added to cells as a negative control (virus control, VC). Three days later, the culture medium was replaced with fresh medium containing the appropriately diluted drug. Six days following the initial administration of the test compound, the cell culture supernatant was collected, treated with pronase and then used in a real-time qPCR/TaqMan assay to determine HBV DNA copy numbers. TDF (tenofovir disoproxil fumarate) is used as a positive control reference. Antiviral activity was calculated from the reduction in HBV DNA levels (IC50).

HepG2.2.15 cells = test: Compound cytotoxicity assay (CellTiter-Glo); format: cell-based; conditions: compared with Compound 203 in WO2015113990
Method: (§1) Compounds are diluted with DMSO in 3-fold, 11-point scheme: top conc. of test compound is 30 mM. Add 0.25 μL titrated compounds with Echo 550 to 384-well cytotoxicity assay plates. Add 50 μl HepG2.2.15 cells to each well (4,000 cells per well). The final top conc. is 150 μM after cell addition. For solvent control well (0% effect, ZPE), 0.25 μL DMSO is added (final DMSO conc. is 0.5%). Incubate for 4 days in 37⊏ C, 5% CO2 incubator. After
(§2) 4 day incubation compound cytotoxicity is measured by Promega CellTiter-Glo reagents, briefly: • Equilibrate the Celltiter-Glo reagent to room temperature • Equilibrate the cytotoxicity plates to RT for 20 minutes. • Add 50 μl of CellTiter-Glo Reagent to each well. • Shake 2 minutes on a shaker. • Incubate at room temperature in dark for 10 minutes. • Read plate on Envision Plate reader (0.1 sec integration time/well)
(§3) Such assays, carried out with a range of doses of test compounds, allow the determination of the cellular IC50 of the compounds of the present invention.

[1] = Compound cytotoxicity assay (CellTiter-Glo); format: cell-based; conditions: human; HepG2.2.15 cells, 4 day incubation, top conc. 150 μM
Method: as §1, §2, §3

hERG = hERG (Homo sapiens, UniProt Q12809); test: hERG assay (automated patch-clamp); format: biochemical; conditions: for IC10 (10% inhibitory concentration, hERG tail current): automated patch-clamp
Sequence of hERG (Q12809 whole entry): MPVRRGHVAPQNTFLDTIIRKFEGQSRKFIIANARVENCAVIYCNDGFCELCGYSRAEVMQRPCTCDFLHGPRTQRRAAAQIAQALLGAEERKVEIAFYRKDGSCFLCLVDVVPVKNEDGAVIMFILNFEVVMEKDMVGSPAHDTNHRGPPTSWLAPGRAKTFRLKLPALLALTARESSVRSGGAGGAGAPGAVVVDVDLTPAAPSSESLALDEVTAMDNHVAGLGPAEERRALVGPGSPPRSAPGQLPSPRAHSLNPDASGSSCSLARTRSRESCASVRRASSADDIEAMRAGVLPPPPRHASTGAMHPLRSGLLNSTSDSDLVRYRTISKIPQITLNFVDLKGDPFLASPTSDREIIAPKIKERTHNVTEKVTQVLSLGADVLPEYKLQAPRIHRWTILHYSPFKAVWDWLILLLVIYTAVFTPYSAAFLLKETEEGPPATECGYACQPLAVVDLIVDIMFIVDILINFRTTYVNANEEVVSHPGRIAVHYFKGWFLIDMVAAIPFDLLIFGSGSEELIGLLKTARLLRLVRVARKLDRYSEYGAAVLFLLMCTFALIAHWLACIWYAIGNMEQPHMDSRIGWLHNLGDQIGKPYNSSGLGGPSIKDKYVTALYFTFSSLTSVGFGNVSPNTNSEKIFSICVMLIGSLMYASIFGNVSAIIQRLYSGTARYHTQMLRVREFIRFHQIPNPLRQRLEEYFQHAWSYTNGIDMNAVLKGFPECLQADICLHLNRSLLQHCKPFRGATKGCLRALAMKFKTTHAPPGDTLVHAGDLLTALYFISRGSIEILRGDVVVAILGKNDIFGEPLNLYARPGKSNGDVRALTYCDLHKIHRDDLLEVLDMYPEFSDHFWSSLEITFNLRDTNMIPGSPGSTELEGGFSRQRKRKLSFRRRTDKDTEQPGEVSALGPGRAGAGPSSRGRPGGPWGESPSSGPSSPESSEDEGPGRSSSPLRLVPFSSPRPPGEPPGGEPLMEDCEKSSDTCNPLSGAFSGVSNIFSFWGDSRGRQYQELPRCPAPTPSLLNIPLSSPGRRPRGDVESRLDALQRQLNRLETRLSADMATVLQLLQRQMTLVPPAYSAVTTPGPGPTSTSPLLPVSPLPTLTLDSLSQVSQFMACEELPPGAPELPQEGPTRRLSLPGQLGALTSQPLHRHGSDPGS
Description: The human ether-a-go-go related gene (hERG) encodes the inward rectifying voltage gated potassium channel in the heart (IKr) which is involved in cardiac repolarization. Inhibition of the hERG current causes QT interval prolongation resulting in potentially fatal ventricular tachyarrhythmia called Torsade de Pointes. A number of drugs have been withdrawn from late stage clinical trials due to these cardiotoxic effects, therefore it is important to identify inhibitors early in drug discovery.
The degree of inhibition (%) was obtained by measuring the tail current amplitude, which is induced by a one second test pulse to −40 mV after a two second pulse to +20 mV, before and after drug incubation (the difference current was normalized to control and multiplied by 100 to obtain the percent of inhibition). Concentration (log) response curves were fitted to a logistic equation (three parameters assuming complete block of the current at very high test compound concentrations) to generate estimates of the 10% inhibitory concentration (IC10). The concentration-response relationship of each compound was constructed from the percentage reductions of current amplitude by sequential concentrations.

| SMILES | AUC(0-t) (Rat PK study; 10 mg/kg) [ng·h/mL] | bioavailability (Rat PK study; 10 mg/kg) [%] | EC50 (extracellular HBV DNA) [nM] | AUC(0-t) (Rat PK study; 20 mg/kg) [ng·h/mL] | Cmax (Rat PK study; 20 mg/kg) [ng/mL] | bioavailability (Rat PK study; 20 mg/kg) [%] | half-life (Rat PK study; 20 mg/kg) [h] | IC50 at 4 days [1] [nM] | IC10 (10% inhibitory concentration, hERG tail current) (hERG) [nM] | also measured |
| --- | --- | --- | --- | --- | --- | --- | --- | --- | --- | --- |
| COCCCOc1cc2c(cc1OC)-c1c(F)c(=O)c(C(=O)O)cn1[C@H](C(C)(C)C)C2 [Example 13] | 5840 | 24.1 | – | – | – | – | – | – | – | – |
| CC(C)OC(=O)OCOP(=O)(CO[C@H](C)Cn1cnc2c(N)ncnc21)OCOC(=O)OC(C)C [Tenofovir Disoproxil Fumarate, tenofovir disoproxil fumarate, reference compound] | – | – | 29.3 | – | – | – | – | – | – | – |
| COCCCOc1cc2c(cc1Cl)-c1c(F)c(=O)c(C(=O)O)cn1[C@H](C(C)(C)C)C2 (single isomer, unassigned) [Example 2A, (+)-6-(tert-butyl)-10-chloro-1-fluoro-9-(3-methoxypropoxy)-2-oxo-6,7-dihydro-2H-pyrido[2,1-a]isoquinoline-3-carboxylic acid] | – | – | < 1 | 39600 | 7550 | 58.6 | 4.47 | > 150000 | 10000 | oral PK profile (in words) (Rat PK study; oral dosing of 20 mg/kg, compared with Compound 203 in WO2015113990): better oral PK profile; cytotoxicity (in words) (HepG2.2.15 cells): less cytotoxicity; anti-HBV potency (in words) (extracellular HBV DNA; HBV DNA): highly potent; cardiac toxicity (in words) (hERG; hERG, compared with Compound 203 in WO2015113990): less cardiac toxicity |
| [2H]C([2H])([2H])Oc1cc2c(cc1OCCCOC)C[C@@H](C(C)(C)C)n1cc(C(=O)O)c(=O)c(F)c1-2 [Example 14, (S)-6-(tert-butyl)-1-fluoro-10-(methoxy-d3)-9-(3-methoxypropoxy)-2-oxo-6,7-dihydro-2H-pyrido[2,1-a]isoquinoline-3-carboxylic acid] | 9050 | 61.1 | – | – | – | – | – | – | – | oral PK profile (in words) (Rat PK study; oral dosing of 10 mg/kg, compared with Example 13): much better oral PK profile |
| COCCCOc1cc2c(cc1Cl)-c1cc(=O)c(C(=O)O)cn1[C@H](C(C)(C)C)C2 [Compound 203 in WO2015113990, reference compound] | – | – | < 1 | 16700 | 2470 | 40 | 3.73 | 120000 | 1000 | – |
